Experimental data as given in patent US9297012B2, “Methods and compositions for inducing deregulation of EPHA7 and ERK phosphorylation in human acute leukemias” (The Ohio State University Research Foundation, priority 2007, dated 2016).

How the values were obtained:
Type in all cases: cell-based, human
[1] = test system: SEMK2 cells; experiment: MTT assay, SEMK2; details: SEMK2, t(4;11); 1 μM; 24, 48 and 72 hr; ratio vs DMSO
Procedure: (§1) At each time point, the cells were subjected to MTT assay (left), Caspase 3 activity assay (middle) and FACS analysis (right). The results of MTT and Caspase 3 activity assays are calculated as a ratio against the value for DMSO-treated cells. Vertical bar in each column indicates standard deviation determined by triplicate assays.
(§2) Methods including Recombinant protein expression in K562 and in KG1 cells, RNA interference, Western blot analysis, and MTT assay, Caspase 3 Activity assay and FACS analysis are available in online Supporting Information.

[2] = test system: RS4;11 cells; experiment: MTT assay, RS4;11; details: RS4;11, t(4;11); 1 μM; 24, 48 and 72 hr; ratio vs DMSO
Procedure: as §1, §2

[3] = test system: 380 cells; experiment: MTT assay, 380; details: 380 control cells lacking ALL1 abnormality; 1 μM; 24, 48 and 72 hr
Procedure: as §1, §2

[4] = test system: 697 cells; experiment: MTT assay, 697; details: 697 control cells lacking ALL1 abnormality; 1 μM; 24, 48 and 72 hr
Procedure: as §1, §2

[5] = test system: SEMK2 cells; experiment: Caspase 3 activity assay, SEMK2; details: 1 μM, 24 hr, ratio vs DMSO
Procedure: as §1
(§3) To determine the cause for the reduction in cell numbers, the 5-ITU-treated cells were subjected to assays determining apoptotic cell death (caspase 3 activity assay and FACS analysis).
as §2

[6] = test system: RS4;11 cells; experiment: Caspase 3 activity assay, RS4;11; details: 1 μM, 24 hr, ratio vs DMSO
Procedure: as §1, §3, §2

[7] = test system: SEMK2 cells; experiment: FACS analysis (subG1), SEMK2; details: 1 μM
Procedure: as §1, §3, §2

[8] = test system: RS4;11 cells; experiment: FACS analysis (subG1), RS4;11; details: 1 μM
Procedure: as §1, §3, §2

Nc1ncnc2c1c(I)cn2[C@@H]1O[C@H](CO)[C@@H](O)[C@H]1O [5-ITU, 5-iodotubercidin]
cell number (MTT assay) [1]: reduction in numbers | cell number (MTT assay) [2]: reduction in numbers | cell number (MTT assay) [3]: no diminution in the number | cell number (MTT assay) [4]: no diminution in the number | caspase 3 activity [5]: Increased caspase 3 activity | caspase 3 activity [6]: Increased caspase 3 activity | cells at the subG1 phase (FACS) [7]: high proportion | cells at the subG1 phase (FACS) [8]: high proportion
